Measured values published in patent US20230041065A1, “METHODS FOR GENERATING HEMATOPOIETIC STEM CELLS” (The Brigham and Women`s Hospital, Inc., priority 2019, published 2023).
Entries after “also recorded” stand apart in the source; their conditions may differ.

Tests used:
E11.5 AGM-derived HSCs = experiment: Serial transplantation of E11.5 AGM-derived HSCs into irradiated mice; assay type: in vivo, mouse
Experimental: Pulsating blood vessels like conditions were stimulated in vitro using Flexcell FX-4000 machine. To analyze roles of pharmacological targets in regulating the endothelial-to-HSC transition, mouse embryo-derived AGM or whole mouse embryo were exposed ex vivo with biomechanical stretching, chemicals, or drugs. Next, hematopoietic colony formation assays were performed by incubating mouse AGM-derived cells in StemCell M3434 media for seven days. Serial transplantation of AGM-derived HSCs in lethally irradiated SJL mice were performed. The stem cell frequency upon biomechanical stretching was analyzed using a limiting dilution assay. To characterize properties of AGM-HSC-derived blood cells in primary transplants, percentage chimerism and reconstitution was measured using FACS, globin transcripts were analyzed using quantitative reverse transcriptase-PCR, myeloperoxidase amount was measured using PicoKine ELISA kit, TCR-β rearrangement was analyzed using PCR for TCR-β locus, pre-immune IG detection was analyzed using Thermo-Fisher Mouse Ig Isotyping kit, and delayed-type hypersensitivity was analyzed by injecting sheep RBC (Rockland Immunochemicals) in the footpad of pre-sensitized mice.
For primary transplantation, three-embryo equivalents of untreated or treated (cyclic strain or 25 μM Yoda1) AGMs plus splenic helper cells (˜500,000 per mouse) were injected into lethally irradiated (split dose […]) Cd45.1 (SJL) mice by retro-orbital injection. For secondary and tertiary transplants, the bone marrow was isolated (legs, arm, pelvic bone, spine, sternum) from the transplanted mice. The bone marrow was loaded on a Ficoll gradient (Histopaque®-1083, Sigma-Aldrich), and the cells from the buffy coat incubated with biotin-conjugated lineage antibodies and streptavidin microbeads (Miltenyi Biotec). Next, the lineage negative (Lin^−) cells were separated with MACS LS Columns (Miltenyi Biotec), and the donor Cd45.2 Lin^−Sca1+c-Kit^+ (LSK) cells sorted with a MoFlo Beckman Coulter sorter. Subsequently, the sorted Cd45.2 LSK cells were mixed with Cd45.1 splenic helper cells (˜500,000 per mouse) and transplanted into Cd45.1 irradiated (split dose […]) SJL mice by retro-orbital injection.
AGM cells from explants and ex vivo were stained with Sca1-Pacific-Blue (E13-161.7, Biolegend) and Flk1-APC-Cy7 (Avas 12α1, BD). Blood from transplanted mice was stained with the following antibody cocktail: Cd45.2-Pacific-Blue (104, Biolegend), Cd45.1-FITC (A20, Biolegend), Cd3-PE (145-2C11, Biolegend), Cd8-PE (53-6.7, Biolegend), Mac1-APC (M1/70, Biolegend), Gr1-APC (108412, Biolegend), Cd19-APC-CY7(6D5, Biolegend), B220-APC-CY7 (RA3-6B2, Biolegend). […]

E11.5 AGM cells = experiment: Hematopoietic CFU and FACS assays on E11.5 AGM cells; assay type: cell-based, mouse
Experimental: Pulsating blood vessels like conditions were stimulated in vitro using Flexcell FX-4000 machine. To analyze roles of pharmacological targets in regulating the endothelial-to-HSC transition, mouse embryo-derived AGM or whole mouse embryo were exposed ex vivo with biomechanical stretching, chemicals, or drugs. Next, hematopoietic colony formation assays were performed by incubating mouse AGM-derived cells in StemCell M3434 media for seven days. Serial transplantation of AGM-derived HSCs in lethally irradiated SJL mice were performed. The stem cell frequency upon biomechanical stretching was analyzed using a limiting dilution assay. To characterize properties of AGM-HSC-derived blood cells in primary transplants, percentage chimerism and reconstitution was measured using FACS, globin transcripts were analyzed using quantitative reverse transcriptase-PCR, myeloperoxidase amount was measured using PicoKine ELISA kit, TCR-β rearrangement was analyzed using PCR for TCR-β locus, pre-immune IG detection was analyzed using Thermo-Fisher Mouse Ig Isotyping kit, and delayed-type hypersensitivity was analyzed by injecting sheep RBC (Rockland Immunochemicals) in the footpad of pre-sensitized mice. E11.5 AGM were harvested from C57BL6/J Cd45.2 mouse embryos, and a single cell suspension of a three-embryo equivalent of cells was seeded on each well of a BioFlex six-well culture plate ([…]). We cultured cells overnight with the application of cyclic strain (Flexcell® FX4000TM Tension System) and/or treatment with chemical modulators (2-100 μM Yoda1, 1 μM Nanaomycin, 100 μM Gdcl3, 1 uM GsMT×4, 5-20 μM 4αPDD, 10 uM GSK205). Next, harvested cells were used to perform transplant, fluorescence-activated cell sorting (FACS) analysis, and colony-forming unit (CFU) assays. For CFU assays, cells from AGM explant or ex vivo were plated in MethoCult GF M3434 media (StemCell Technologies). Seven days after seeding, we analyzed their capacity to make granulocyte, erythroid, macrophage, megakaryocyte (GEMM), granulocyte macrophage (GM), granulocyte (G), macrophage (M), and erythroid (E) colonies.

[1] = tested on: human PSC (DF19-9-7T)-derived hCD34+ hematopoietic cells; experiment: Transplantation of human PSC-derived hCD34+ hematopoietic cells in humanized mice; assay type: in vivo

## Clc1cccc(Cl)c1CSc1nnc(-c2cnccn2)s1 [Yoda1, 2-[5-[[(2,6-Dichlorophenyl)methyl]thio]-1,3,4-thiadiazol-2-yl]-pyrazine]
E11.5 AGM-derived HSCs; primary transplant, week 16
  percentage reconstitution to myeloid cells, T-cells and B-cells: stimulates the formation of HSCs that reconstitute to the blood
E11.5 AGM-derived HSCs; primary transplant, weeks 8-16, treated E11.5 AGM donor cells
  percentage peripheral blood chimerism: stimulates the formation of HSCs
E11.5 AGM-derived HSCs; secondary transplant, week 12
  percentage reconstitution to myeloid cells, T-cells and B-cells: produces HSCs that can serially reconstitute to the blood
E11.5 AGM-derived HSCs; secondary transplant, weeks 8-12
  percentage peripheral blood chimerism: produces HSCs that have serial engraftment and self-renewal capacities
E11.5 AGM cells; 25 μM
  GEMM formation: enhances GEMM formation
E11.5 AGM cells; E11.5 AGM cells vs. control
  hematopoietic colony formation (endothelial-to-hematopoietic transition): stimulates the endothelial-to-hematopoietic transition
[1]; primary transplant
  percentage of bone marrow reconstitution to human CD33+, CD3+ and CD19+ cells: stimulates the formation of hCD34+ hematopoietic cells that reconstitute multi-lineage blood
[1]; primary transplant, after 8-10 weeks
  percentage of bone marrow chimerism: enhances the formation of engraftable human CD34+ cells; also recorded: enhances the formation of engraftable hCD34+ cells
[1]; secondary transplant
  percentage peripheral blood reconstitution to human CD33+, CD3+ and CD19+ cells: stimulates the formation of human LT-HSCs that reconstitute multi-lineage blood upon serial transplantation
[1]; secondary transplant, after 16 weeks
  percentage of peripheral blood chimerism: enhances the formation of self-renewing LT-HSCs
